In brackets after ≈: the same amount, converted by molar mass. Like-named read-outs stand apart in the source and are kept apart here.
Experiments:
[1] = test system: Molt-4 cells and Molt-4/HIV cells; test: cells; type: cell-based; details: for 50% Inhibitory Concentration (IC₅₀): giant cell formation inhibition, as indicated in Example 4
Description: After a test drug was dissolved in methanol medium for tissue culture was added to the solution to make a definite concentration. The concentration of methanol was finally adjusted to less than 2 %. HIV persistent injection Molt-4 cells (Molt-4/HIV cells) were precultured for 24 hours in the presence of the compound. The precultured Molt-4/HIV cells were mixed with HIV-non-infected Molt-4 cells, whereby the compound was prepared to have the same concentration as that of the preculture. The mixture was then cultured. Giant cell formation was compared between chemically intact control cells and the group to which the compound has been added 5 and 20 hours after mixing the culture to evaluate the effect of the chemical. The evaluation was made based on the method of Yamamoto et al. (Virology, 164, 542 - 546, 1988). The evaluation effect is shown in Table 1 in terms of fusion index.

mice = test: Acute toxicity test, oral administration to mice; type: in vivo; details: 4g/kg administered orally, 3 mice in each group
From the text: The compounds of the present invention have low toxicity.

[2] = 12.5 µg/ml, mixed culture 5 hours
[3] = 12.5 µg/ml, mixed culture 20 hours
[4] = 25 µg/ml, mixed culture 5 hours
[5] = 25 µg/ml, mixed culture 20 hours
[6] = 50 µg/ml, mixed culture 5 hours
[7] = 50 µg/ml, mixed culture 20 hours
[8] = Homo sapiens, MOLT-4, 5 h, read-out: Giant cell formation inhibitory rate (%)
[9] = Homo sapiens, MOLT-4, 20 h, read-out: Giant cell formation inhibitory rate (%)
[10] = Homo sapiens, MOLT-4, read-out: 50% Inhibitory Concentration (IC₅₀)
[11] = Homo sapiens, MOLT-4, read-out: 50 % of inhibitory concentration (IC₅₀ value) of the giant cell formation inhibition
[12] = 100 µg/ml, mixed culture 5 hours
[13] = 100 µg/ml, mixed culture 20 hours
[14] = 200 µg/ml, mixed culture 5 hours
[15] = 200 µg/ml, mixed culture 20 hours

OC[C@@H]1[C@@H](O)[C@H](O)[C@@H](O)CN1CCC(c1ccccc1)c1ccccc1 [Example 3, N-(3,3-diphenyl-propyl)-1-deoxynojirimycin]
Fusion index ([1]; 3.13 µg/ml, mixed culture 5 hours): 0.26
Fusion index ([1]; 3.13 µg/ml, mixed culture 20 hours): 1.50
Fusion index ([1]; 6.25 µg/ml, mixed culture 5 hours): 0.54
Fusion index ([1]; 6.25 µg/ml, mixed culture 20 hours): 2.16
Fusion index [1, 2]: 0.26
Fusion index [1, 3]: 1.37
Fusion index [1, 4]: 0.50
Fusion index [1, 5]: 0.89
Fusion index [1, 6]: 0.32
Fusion index [1, 7]: 0.62
inhibition at 3.13 µg/mL [1, 8]: 51.9%
inhibition at 6.25 µg/mL [1, 8]: 0%
inhibition at 12.5 µg/mL [1, 8]: 51.9%
inhibition at 25 µg/mL [1, 8]: 7.4%
inhibition at 50 µg/mL [1, 8]: 40.7%
inhibition at 3.13 µg/mL [1, 9]: 21.1%
inhibition at 6.25 µg/mL [1, 9]: 0%
inhibition at 12.5 µg/mL [1, 9]: 27.9%
inhibition at 25 µg/mL [1, 9]: 53.2%
inhibition at 50 µg/mL [1, 9]: 67.4%

OC[C@@H]1[C@@H](O)[C@H](O)[C@@H](O)CN1CCCC(F)(F)F [Example 15, N-(4,4,4-Trifluorobutyl)-1-deoxynojirimycin]
IC50 [1, 10]: 5 to 10 µg/mL (≈ 18.3 to 36.6 µM)

OC[C@@H]1[C@@H](O)[C@H](O)[C@@H](O)CN1CC=C(c1ccc(F)cc1)c1ccc(F)cc1 [Example 9, N-[3,3-Di(4-fluorophenyl)-2-propenyl]-1-deoxynojirimycin]
50% Inhibitory Concentration (IC₅₀) [1]: >100 µg/mL

OC[C@@H]1[C@@H](O)[C@H](O)[C@@H](O)CN1CC=Cc1ccc(F)cc1 [Example 12, N-[3(4-Fuluorophenyl)-2-propenyl]-1-deoxynojirimycin]
50% Inhibitory Concentration (IC₅₀) [1]: 10 µg/mL

OC[C@@H]1[C@@H](O)[C@H](O)[C@@H](O)CN1CC=Cc1ccccc1Cl [Example 7, N-[3-(2-Chlorophenyl)-2-propenyl]-1-deoxynojirimycin]
50% Inhibitory Concentration (IC₅₀) [1]: 60 µg/mL

OC[C@@H]1[C@@H](O)[C@H](O)[C@@H](O)CN1CCCCc1ccccc1 [Example 5, N-(4-Phenylbutyl)-1-deoxynojirimycin]
IC50 [1, 10]: 5 to 10 µg/mL (≈ 16.9 to 33.9 µM)

OC[C@@H]1[C@@H](O)[C@H](O)[C@@H](O)CN1CC=Cc1cccc(F)c1 [Example 4, N-[3-(3-fluorophenyl) 2-propenyl]-1-deoxynojirimycin]
Fusion index ([1]; 2.5 µg/ml, mixed culture 20 hours): 1.38
Fusion index ([1]; 5 µg/ml, mixed culture 20 hours): 1.04
Fusion index ([1]; 10 µg/ml, mixed culture 20 hours): 0.52
Fusion index ([1]; 20 µg/ml, mixed culture 20 hours): 0.32
Fusion index ([1]; 40 µg/ml, mixed culture 20 hours): 0.01
inhibition at 2.5 µg/mL [1, 9]: 28%
inhibition at 5 µg/mL [1, 9]: 46%
inhibition at 10 µg/mL [1, 9]: 73%
inhibition at 20 µg/mL [1, 9]: 83%
inhibition at 40 µg/mL [1, 9]: 99%
IC50 [1, 11]: 5 to 10 µg/mL (≈ 16.8 to 33.6 µM)

OC[C@@H]1[C@@H](O)[C@H](O)[C@@H](O)CN1CC=Cc1cccc(Cl)c1 [Example 6, N-[3-(3-Chlorophenyl)-2-propenyl]-1-deoxynojirimycin]
50% Inhibitory Concentration (IC₅₀) [1]: 50 µg/mL

OC[C@@H]1[C@@H](O)[C@H](O)[C@@H](O)CN1CCCCC(F)(F)F [Example 16, N-(5,5,5-Trifluoropentyl)-1-deoxynojirimycin]
IC50 [1, 10]: 2.5 to 5 µg/mL (≈ 8.7 to 17.4 µM)

OC[C@@H]1[C@@H](O)[C@H](O)[C@@H](O)CN1CCC=Cc1ccc(Cl)cc1 [Example 8, N-[4-(4-Chlorophenyl)-3-butenyl]-1-deoxynojirimycin]
50% Inhibitory Concentration (IC₅₀) [1]: 70 µg/mL

OC[C@@H]1[C@@H](O)[C@H](O)[C@@H](O)CN1CC=Cc1ccccc1F [Example 13, N-[3-(2-Fluorophenyl)-2-propenyl]-1-deoxynojirimycin]
IC50 [1, 10]: 2.5 to 5 µg/mL (≈ 8.41 to 16.8 µM)

Cc1ccc(CCCN2C[C@H](O)[C@@H](O)[C@H](O)[C@H]2CO)cc1 [Example 10, N-[3-(4-Methylphenyl)-propyl]-1-deoxynojirimycin]
IC50 [1, 10]: 5 to 10 µg/mL (≈ 16.9 to 33.9 µM)

OC[C@@H]1[C@@H](O)[C@H](O)[C@@H](O)CN1CCCc1ccccc1 [Example 1, N-(3-phenylpropyl)-1-deoxynojirimycin]
Fusion index [1, 2]: 0.11
Fusion index [1, 3]: 0.34
Fusion index [1, 4]: -0.07
Fusion index [1, 5]: 0.18
Fusion index [1, 6]: 0.19
Fusion index [1, 7]: 0.13
Fusion index [1, 12]: 0
Fusion index [1, 13]: 0.05
Fusion index [1, 14]: 0.23
Fusion index [1, 15]: 0.18
effect of inhibiting the formation of giant cells ([1]; 20 hours after mixing the culture): about 90%
inhibition at 12.5 µg/mL [1, 8]: 79.6%
inhibition at 25 µg/mL [1, 8]: 100%
inhibition at 50 µg/mL [1, 8]: 64.8%
inhibition at 100 µg/mL [1, 8]: 100%
inhibition at 200 µg/mL [1, 8]: 57.4%
inhibition at 12.5 µg/mL [1, 9]: 82.1%
inhibition at 25 µg/mL [1, 9]: 90.5%
inhibition at 50 µg/mL [1, 9]: 93.2%
inhibition at 100 µg/mL [1, 9]: 97.4%
inhibition at 200 µg/mL [1, 9]: 90.5%
IC50 [1, 11]: 5 to 10 µg/mL (≈ 17.8 to 35.5 µM)
microscopic observation of giant cell formation ([1]; compared to the control cells): clearly inhibited the formation of giant cells

OC[C@@H]1[C@@H](O)[C@H](O)[C@@H](O)CN1CC=Cc1ccccc1 [Example 2, N-(3-phenyl-2-propenyl)-1-deoxynojirimycin]
Fusion index [1, 2]: 0.14
Fusion index [1, 3]: -0.03
Fusion index [1, 4]: 0.17
Fusion index [1, 5]: -0.08
Fusion index [1, 6]: 0.06
Fusion index [1, 7]: -0.07
Fusion index [1, 12]: -0.10
Fusion index [1, 13]: 0.10
Fusion index [1, 14]: -0.08
Fusion index [1, 15]: 0.10
inhibition at 12.5 µg/mL [1, 8]: 74.1%
inhibition at 25 µg/mL [1, 8]: 68.5%
inhibition at 50 µg/mL [1, 8]: 88.9%
inhibition at 100 µg/mL [1, 8]: 100%
inhibition at 200 µg/mL [1, 8]: 100%
inhibition at 12.5 µg/mL [1, 9]: 100%
inhibition at 25 µg/mL [1, 9]: 100%
inhibition at 50 µg/mL [1, 9]: 100%
inhibition at 100 µg/mL [1, 9]: 94.7%
inhibition at 200 µg/mL [1, 9]: 94.7%
IC50 [1, 11]: 2.5 to 5 µg/mL (≈ 8.95 to 17.9 µM)
giant cell formation inhibiting effect ([1]; Table 2): 90-100%
survival in the acute toxicity test (mice): all of the tested mice survived

OC[C@@H]1[C@@H](O)[C@H](O)[C@@H](O)CN1CCOc1ccccc1 [Control, N-(2-Phenoxyethyl)-1-deoxynojirimycin, reference compound]
IC50 [1, 10]: 20 to 40 µg/mL (≈ 70.6 to 141 µM)

OC[C@@H]1[C@@H](O)[C@H](O)[C@@H](O)CN1CCC=Cc1ccccc1F [Example 14, N-[4-(2-Fluorophenyl)-3-butenyl]-1-deoxynojirimycin]
IC50 [1, 10]: 5 to 10 µg/mL (≈ 16.1 to 32.1 µM)

OC[C@@H]1[C@@H](O)[C@H](O)[C@@H](O)CN1CCCc1ccc(F)cc1 [Example 11, N-[3-(4-Fluorophenyl)-propyl]-1-deoxynojirimycin]
IC50 [1, 10]: 5 to 10 µg/mL (≈ 16.7 to 33.4 µM)

Reference: patent publication EP0350012A2, “Antiviral composition” (MEIJI SEIKA KAISHA LTD., priority 1988, dated 1990)
